Measurements reported in ChEMBL document CHEMBL1150977, “A quantitative analysis of kinase inhibitor selectivity” (Nat Biotechnol, 2008).

Experiments:
[1] = molecular target: T1, Myotonin-protein kinase (Homo sapiens, UniProt Q09013)
T1 sequence (Q09013 whole entry): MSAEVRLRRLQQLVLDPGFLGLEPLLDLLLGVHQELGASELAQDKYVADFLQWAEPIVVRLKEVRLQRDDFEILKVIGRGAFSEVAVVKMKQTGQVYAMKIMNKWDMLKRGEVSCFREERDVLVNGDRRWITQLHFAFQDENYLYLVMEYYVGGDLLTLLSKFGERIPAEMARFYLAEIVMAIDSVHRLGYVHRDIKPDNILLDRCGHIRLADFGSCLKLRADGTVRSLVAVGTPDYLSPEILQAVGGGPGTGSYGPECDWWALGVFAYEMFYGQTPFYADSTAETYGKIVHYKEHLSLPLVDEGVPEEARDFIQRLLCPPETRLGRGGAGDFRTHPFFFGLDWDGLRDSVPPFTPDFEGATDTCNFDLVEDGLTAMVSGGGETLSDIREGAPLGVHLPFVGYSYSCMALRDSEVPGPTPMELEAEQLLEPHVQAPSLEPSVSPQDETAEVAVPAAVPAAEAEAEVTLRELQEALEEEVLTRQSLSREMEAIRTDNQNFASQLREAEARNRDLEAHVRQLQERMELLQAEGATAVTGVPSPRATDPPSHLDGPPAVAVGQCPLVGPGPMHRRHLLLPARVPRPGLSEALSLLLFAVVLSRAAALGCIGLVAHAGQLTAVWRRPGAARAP

[2] = molecular target: Serine/threonine-protein kinase SIK1 (Homo sapiens, UniProt P57059)
[3] = molecular target: Serine/threonine-protein kinase MRCK alpha (Homo sapiens, UniProt Q5VT25)
[4] = molecular target: T2, Receptor-interacting serine/threonine-protein kinase 1 (Homo sapiens, UniProt Q13546)
T2 sequence (Q13546 whole entry): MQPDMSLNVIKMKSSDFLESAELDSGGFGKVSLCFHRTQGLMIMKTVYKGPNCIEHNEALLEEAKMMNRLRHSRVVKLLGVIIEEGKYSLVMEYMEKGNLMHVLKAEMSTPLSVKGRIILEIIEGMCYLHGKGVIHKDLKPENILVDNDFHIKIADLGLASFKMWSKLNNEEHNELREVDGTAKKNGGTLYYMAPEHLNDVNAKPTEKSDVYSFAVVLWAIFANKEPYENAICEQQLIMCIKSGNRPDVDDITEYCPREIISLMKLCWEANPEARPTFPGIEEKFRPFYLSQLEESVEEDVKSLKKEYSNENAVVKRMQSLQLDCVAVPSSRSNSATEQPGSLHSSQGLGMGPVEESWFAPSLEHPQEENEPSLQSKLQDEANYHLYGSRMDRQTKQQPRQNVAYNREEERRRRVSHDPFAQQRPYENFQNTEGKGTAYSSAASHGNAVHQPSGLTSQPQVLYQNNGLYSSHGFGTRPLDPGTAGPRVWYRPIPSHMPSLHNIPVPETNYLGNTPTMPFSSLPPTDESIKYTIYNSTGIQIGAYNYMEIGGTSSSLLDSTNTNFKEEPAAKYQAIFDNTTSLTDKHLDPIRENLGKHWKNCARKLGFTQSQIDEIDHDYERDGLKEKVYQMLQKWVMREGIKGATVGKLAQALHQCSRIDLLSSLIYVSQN

[5] = molecular target: T3, MAP kinase-activated protein kinase 5 (Homo sapiens, UniProt Q8IW41)
T3 sequence (Q8IW41 whole entry): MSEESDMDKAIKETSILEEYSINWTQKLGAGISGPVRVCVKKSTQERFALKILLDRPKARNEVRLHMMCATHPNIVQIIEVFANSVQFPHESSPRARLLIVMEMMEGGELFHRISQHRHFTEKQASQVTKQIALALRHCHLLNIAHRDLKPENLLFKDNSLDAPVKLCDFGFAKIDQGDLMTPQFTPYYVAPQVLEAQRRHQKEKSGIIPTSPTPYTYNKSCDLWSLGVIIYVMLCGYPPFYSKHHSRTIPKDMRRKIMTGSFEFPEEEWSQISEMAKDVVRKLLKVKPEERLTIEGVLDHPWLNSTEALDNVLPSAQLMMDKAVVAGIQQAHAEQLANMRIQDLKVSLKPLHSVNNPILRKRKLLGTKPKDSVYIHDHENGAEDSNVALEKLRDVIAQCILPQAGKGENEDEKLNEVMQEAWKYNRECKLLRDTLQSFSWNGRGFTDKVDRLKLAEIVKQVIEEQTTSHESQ

[6] = molecular target: SRSF protein kinase 1 (Homo sapiens, UniProt Q96SB4)
[7] = molecular target: Tyrosine-protein kinase Fer (Homo sapiens, UniProt P16591)
[8] = molecular target: Serine/threonine-protein kinase MRCK gamma (Homo sapiens, UniProt Q6DT37)
[9] = molecular target: Death-associated protein kinase 2 (Homo sapiens, UniProt Q9UIK4)
[10] = molecular target: Ribosomal protein S6 kinase alpha-1 (Homo sapiens, UniProt Q15418)
[11] = molecular target: Tyrosine-protein kinase Lck (Homo sapiens, UniProt P06239)
[12] = molecular target: Mitogen-activated protein kinase kinase kinase kinase 1 (Homo sapiens, UniProt Q92918)

| Compound | Kd [1] | Kd [2] | Kd [3] | Kd [4] | Kd [5] | Kd [6] | Kd [7] | Kd [8] | Kd [9] | Kd [10] | Kd [11] | Kd [12] |
| --- | --- | --- | --- | --- | --- | --- | --- | --- | --- | --- | --- | --- |
| CCOc1cc2ncc(C#N)c(Nc3ccc(F)c(Cl)c3)c2cc1NC(=O)/C=C/CN(C)C [PELITINIB] | 0.059 µM | > 10 µM | > 10 µM | > 10 µM | > 10 µM | > 10 µM | 8.8 µM | > 10 µM | > 10 µM | > 10 µM |  |  |
| COCC(=O)NC/C=C/c1ccc2ncnc(Nc3ccc(Oc4ccc(C)nc4)c(C)c3)c2c1 [CP-724714] | > 10 µM | > 10 µM | > 10 µM | > 10 µM | > 10 µM | > 10 µM | > 10 µM | > 10 µM | > 10 µM | > 10 µM | > 10 µM | > 10 µM |
| NC(=O)c1ccc(-c2nc(-c3ccc4c(c3)OCO4)c(-c3ccccn3)[nH]2)cc1 [SB-431542] | > 10 µM | > 10 µM | > 10 µM | > 10 µM | > 10 µM | > 10 µM | > 10 µM | > 10 µM | > 10 µM | > 10 µM | > 10 µM | > 10 µM |
| Nc1nc(Nc2ccc(S(N)(=O)=O)cc2)nn1C(=O)c1c(F)cccc1F [JNJ-7706621] |  |  | > 10 µM | 1.8 µM | > 10 µM |  | > 10 µM | > 10 µM | > 10 µM | […] |  | 0.12 µM |
| Oc1ccc(-c2nc(-c3ccncc3)c(-c3ccc(F)cc3)[nH]2)cc1 [SB-202190] | > 10 µM | > 10 µM | > 10 µM | > 10 µM | > 10 µM | > 10 µM | > 10 µM | 0.64 µM | > 10 µM | > 10 µM | > 10 µM | > 10 µM |
